Measured values from the supplement of paper PMC8239392.

Key:
[1] = tested on: TAZ-DEP MCF10A-TAZ tumor cells; test: cell viability relative to DMSO control; higher = less cytotoxic; extreme values may be limits of the assay; conditions: 72 h
Protocol: (§1)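 TAZ-dependent (grown with 2 ug/ml dox) and TAZ-independent MCF10A-TAZ tumor-derived breast cancer stem-like cells were plated in 384-well plates and treated with serially diluted compounds (0.65-10 uM) for 72 h. Viability was read by resazurin assay and expressed as % of DMSO-treated control.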

[2] = tested on: TAZ-IND MCF10A-TAZ tumor cells; test: as above; conditions: 72 h
Protocol: as §1

| Compound | cell viability ([1]; 0.65 µM) [%] | cell viability ([1]; 1.25 µM) [%] | cell viability ([1]; 2.5 µM) [%] | cell viability ([1]; 5 µM) [%] | cell viability ([1]; 10 µM) [%] | cell viability ([2]; 0.65 µM) [%] | cell viability ([2]; 1.25 µM) [%] | cell viability ([2]; 2.5 µM) [%] | cell viability ([2]; 5 µM) [%] | cell viability ([2]; 10 µM) [%] |
| --- | --- | --- | --- | --- | --- | --- | --- | --- | --- | --- |
| CC(=O)c1c(C)c2cnc(Nc3ccc(N4CCNCC4)cn3)nc2n(C2CCCC2)c1=O | 79 | 73 | 70 | 59 | 41 | 100 | 100 | 100 | 100 | 96 |
| CCN(CC)CCCC(C)Nc1nc(C)cc(Nc2ccc3nc(C)cc(N)c3c2)n1 (stereo not given) | 50 | 54 | 47 | 50 | 34 | 80 | 81 | 90 | 80 | 73 |
| CN1CCN(CCCNc2ncc(Cl)c(-c3cc4c(C(=O)NC5CC5)cccc4s3)n2)CC1 | 74 | 67 | 63 | 63 | 65 | 94 | 91 | 87 | 84 | 80 |
| COc1ccccc1S(=O)(=O)Nc1ccc2c(c1)CN(C)C(=O)N2 | 91 | 79 | 63 | 54 | 41 | 100 | 100 | 94 | 91 | 85 |
| Cc1c(Cc2ccc3ccccc3n2)c2cc(F)ccc2n1CC(=O)O | 90 | 82 | 69 | 57 | 33 | 90 | 94 | 90 | 77 | 55 |
| O=C(NOC[C@H](O)CO)c1ccc(F)c(F)c1Nc1ccc(I)cc1F | 52 | 56 | 53 | 47 | 48 | 82 | 87 | 84 | 80 | 78 |
| O=C(O)c1cc2cccc([N+](=O)[O-])c2[nH]1 | 100 | 98 | 87 | 47 | 2 | 100 | 100 | 100 | 97 | 70 |
| O=C1NC(=O)/C(=C/c2ccc(-c3ccc(F)cc3O)o2)S1 | 62 | 53 | 51 | 46 | 43 | 72 | 75 | 72 | 67 | 63 |
| O=[N+]([O-])C=Cc1ccc2c(c1)OCO2 | 100 | 100 | 100 | 78 | 1 | 100 | 99 | 98 | 98 | 31 |
| CN(C)CCSSCCNC(=O)C1CCN(C(=O)CSc2ccc(Cl)cc2)CC1 [6H05] | 96 | 91 | 89 | 66 | 23 | 99 | 98 | 92 | 88 | 83 |
| COCCOc1cnc2ccn([C@H](C)c3nnc4c(F)cc(-c5cnn(C)c5)cn34)c(=O)c2c1 [AMG 337] | 88 | 84 | 77 | 68 | 60 | 97 | 97 | 100 | 97 | 100 |
| COC1CCN(C(=O)c2cc(Cc3n[nH]c(=O)c4ccccc34)ccc2F)CC1 [AZD2461] | 94 | 91 | 94 | 70 | 56 | 94 | 89 | 91 | 83 | 78 |
| Cc1[nH]nc(C(F)(F)F)c1Cc1sc2c(c1C(=O)N1C[C@](C)(O)CO1)c(=O)n(C)c(=O)n2C(C)C [AZD3965] | 54 | 49 | 45 | 39 | 32 | 92 | 87 | 91 | 60 | 47 |
| C[C@H]1COC2=C1C(=O)C(=O)c1c2ccc2c1CCCC2(C)C [Cryptotanshinone] | 96 | 94 | 92 | 74 | 30 | 96 | 97 | 93 | 87 | 79 |
| NCCCC[C@@H]1NC(=O)[C@@H](Cc2ccc(O)cc2)NC(=O)[C@H](CC(=O)O)NC(=O)CNC(=O)[C@H](CCCN=C(N)N)NC1=O [Cyclo(RGDyK)] | 99 | 86 | 59 | 49 | 27 | 98 | 94 | 86 | 74 | 65 |
| CCCCCCCCCCCC1=C(O)C(=O)C=C(O)C1=O [Embelin] | 89 | 84 | 75 | 57 | 28 | 89 | 90 | 90 | 89 | 82 |
| CCn1c2ccccc2c2cc(CNCc3ccccc3OC)ccc21 [HLCL-61] | 100 | 100 | 100 | 89 | 59 | 97 | 99 | 100 | 100 | 95 |
| C#Cc1cccc(Nc2ncnc3cc4c(cc23)OCCOCCOCCO4)c1 [Icotinib] | 100 | 100 | 100 | 89 | 34 | 100 | 100 | 100 | 100 | 96 |
| Nc1nc(OCc2cc(Br)cs2)c2[nH]cnc2n1 [Lomeguatrib] | 96 | 91 | 90 | 55 | 36 | 96 | 98 | 97 | 100 | 85 |
| O=C([C@@H](Cc1cccc(C(F)(F)F)c1)NS(=O)(=O)c1cc(F)c2c(c1)CCNC2)N1CCCC1 [PFI-2] | 94 | 85 | 72 | 56 | 46 | 97 | 94 | 92 | 85 | 78 |
| O=C(/C=C/c1ccc2ccccc2n1)c1ccncc1 [PFK15] | 100 | 100 | 81 | 47 | 31 | 98 | 98 | 99 | 95 | 97 |
| CCc1nc(N)nc(N)c1-c1ccc(Cl)cc1 [Pyrimethamine] | 100 | 100 | 98 | 85 | 56 | 100 | 100 | 100 | 100 | 98 |
| COc1cc(F)c(F)c(Nc2ccc(I)cc2F)c1NS(=O)(=O)C1(C[C@H](O)CO)CC1 [Refametinib (RDEA119, Bay 86-9766)] | 53 | 51 | 51 | 51 | 50 | 84 | 82 | 80 | 77 | 71 |
| CC(C)N(CCCNC(=O)Nc1ccc(C(C)(C)C)cc1)C[C@H]1O[C@@H](n2cc(Br)c3c(N)ncnc32)[C@H](O)[C@@H]1O [SGC 0946] | 89 | 83 | 78 | 63 | -1 | 94 | 89 | 79 | 34 | 1 |
| CC(C)(C)c1ccc(S(=O)(=O)NCc2ccc(C(=O)Nc3cccnc3)cc2)cc1 [STF-31] | 100 | 100 | 100 | 99 | 98 | 99 | 100 | 100 | 97 | 96 |
